13 compounds from PubChem BioAssay (NCI) can be followed below.

Holding throughout (experiment): growth of human tumour cells (NCI), 48 h
Test [1] concerns UO-31 renal.
Test [2] has as its system EKVX NSCLC.
Test [3] has as its system SNB-19 CNS.
Test [4] relates to NCI-H460 lung.
In test [5] the test system is OVCAR-4 ovarian.
The test system of test [6] is RXF 393 renal.
For test [7], the system named is IGROV1 ovarian.
Test [8] concerns CCRF-CEM leukemia.
Test [9] relates to LOX IMVI melanoma.
In test [10] the test system is NCI/ADR-RES ovarian.

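1) Cells in 96-well plates. 2) Compound, 48 h, 5 concentrations. 3) Linear interpolation between surrounding doses. 4) Unreached endpoint = highest concentration. Here, GI50 denotes the concentration required for 50% inhibition of growth. The concentration for full growth arrest is given as TGI.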

Consider `CC(C)(C)CC(C)(C)c1cc2c(O)c(c1)Cc1cc(C(C)(C)CC(C)(C)C)cc(c1O)Cc1cc(C(C)(C)CC(C)(C)C)cc(c1O)Cc1cc(C(C)(C)CC(C)(C)C)cc(c1O)Cc1cc(C(C)(C)CC(C)(C)C)cc(c1O)Cc1cc(C(C)(C)CC(C)(C)C)cc(c1O)Cc1cc(C(C)(C)CC(C)(C)C)cc(c1O)Cc1cc(C(C)(C)CC(C)(C)C)cc(c1O)C2`, for which the TGI in test [1], in test [2], in test [3], in [4], in [5] and in test [6] was over 100 µM in each case. Moreover, the TGI in test [7] and in [8] was over 100 µM each time.
As for `CCCCCCCCCCCc1cc(=O)c2c(O)cccc2o1`, the TGI in test [1], in test [2], in [3], in test [4], in test [5] and in test [6] was over 100 µM each time. Moreover, the TGI was over 100 µM in test [9], over 100 µM in test [7] and 83.7 µM in [8].
With `CC1=CC[C@@H]2C(=O)C=CC=C[C@H]12.[C-]#[O+].[C-]#[O+].[C-]#[O+].[Fe]`, the GI50 in [1], in test [3], in test [4], in test [5], in test [6] and in [9] was over 100 µM in each case. For the same compound, the GI50 in test [8] is over 100 µM. Besides, the TGI in test [1], in [3], in test [4], in test [5], in test [6] and in test [9] was over 100 µM each time. The compound also displayed a TGI in test [8] of over 100 µM.
With `COc1cc2ccnc(-c3n[nH]c4cc(OC)c(OC)cc34)c2cc1OC`, the TGI in test [1], in [2], in test [3], in test [4], in [5] and in [9] was over 100 µM throughout. Also, the TGI in test [7] and in [8] was over 100 µM throughout.
For the compound `CCSc1nc(N)c(C#N)c(-c2ccc(OC)c(OC)c2)c1C#N`, the GI50 was 15.9 µM in test [1]; 21.9 µM in test [10]; 32.2 µM in [2]; 24.7 µM in test [3]; 13.8 µM in test [4]; 14.9 µM in [9]. Besides, the GI50 in test [7] is 5.85 µM. The TGI was over 50 µM in test [1]; over 50 µM in test [10]; over 50 µM in test [2]; over 50 µM in test [3]; 44.1 µM in test [4]; 48.2 µM in test [9]. The compound also registered a TGI in [7] of 43.6 µM.
With `O=C(/C=C/c1ccco1)N1CCN(Cc2ccccc2)CC1`, the TGI in [1], in test [2], in test [3], in [4], in test [5] and in test [9] was over 100 µM throughout. Besides, the TGI in test [7] and in test [8] was over 100 µM in each case.
Regarding `COC(=O)c1ccc(N/C=C(/C#N)c2ccsc2)cc1`, the TGI was 32.5 µM in [1]; 31.4 µM in [2]; 29.8 µM in test [3]; over 100 µM in test [4]; 23.9 µM in [6]; 65.2 µM in test [7]. This compound also yielded a TGI in test [8] of over 100 µM.
In the case of `COc1ccc(/C=C\c2cc(OC)c(OC)c(OC)c2)cc1N/C=C\C(=O)c1c[nH]c2ccccc12`, the GI50 in [1], in test [10], in test [3], in test [4], in test [5] and in [9] was under 0.01 µM throughout. Also, the GI50 in test [7] and in test [8] was under 0.01 µM in each case. Moreover, the TGI was over 100 µM in test [1]; 43.3 µM in test [10]; over 100 µM in test [3]; 20.3 µM in test [4]; over 100 µM in test [5]; over 100 µM in test [9]. Further, the TGI in test [7] and in test [8] was over 100 µM each time.
With `COc1ccccc1NC(=O)C1=C(C)NC(C)=C(C(=O)Nc2ccccc2OC)C1c1ccc(C2C(C(=O)Nc3ccccc3OC)=C(C)NC(C)=C2C(=O)Nc2ccccc2OC)cc1`, the TGI in test [1] stood at 14.9 µM; in test [2] it was 6.91 µM; in test [3] it was 12.5 µM; in test [4], 12.6 µM; in [5], 15.6 µM; in test [6], 5.06 µM. The results for the TGI in test [9], in [7] and in test [8] were 2.67 µM, 3.89 µM and 5.71 µM, respectively.
As to `CN(C)C(=S)/N=C(\N)N(C)C`, the TGI in test [1], in test [2], in test [3], in test [4], in test [5] and in [6] was over 100 µM each time. For the same compound, the TGI in test [9], in test [7] and in test [8] was over 100 µM in each case.
Regarding `CCOc1ccc2c(c1)[n+]([O-])c(-c1ccc([N+](=O)[O-])cc1)c(N)[n+]2[O-]`, the TGI in test [1], in [2], in test [3], in test [4], in [5] and in [6] was over 100 µM in each case. In addition, the TGI in test [7] and in test [8] was over 100 µM in each case.
As to `OCC(O)C(OC1OC(CO)C(O)C(O)C1O)c1nn(-c2ccc(Cl)cc2)c2nc3cc(Cl)c(Cl)cc3nc12` (stereo unspecified), the TGI in test [1], in [2], in test [3], in test [4], in test [5] and in test [6] was over 100 µM each time. Moreover, the TGI in test [9] and in test [8] was over 100 µM each time.
`O=C(CC(=O)c1cccc2ccccc12)C(=O)Nc1nccs1`: the TGI in test [1], in test [2], in test [4], in [5], in [6] and in [9] was over 100 µM in each case. For the same compound, the TGI in test [7] and in test [8] was over 100 µM in each case.
